ChEMBL document CHEMBL1146965, “Pyridone derivatives as potent and selective VLA-4 integrin antagonists” (Bioorg Med Chem Lett, 2006)

Legend:
Type in all cases: cell-based
[1] = molecular target: Integrin alpha-4/beta-1 (Homo sapiens, UniProt P05556+P13612); assay: Binding affinity to integrin alpha-4-beta-1 expressed in jurkat J6 cells
[2] = molecular target: T1, Integrin alpha-4/beta-7 (Homo sapiens, UniProt P13612+P26010); assay: Binding affinity to integrin alpha-4-beta-7 expressed in jurkat J6 cells
T1 sequence (P13612 whole entry): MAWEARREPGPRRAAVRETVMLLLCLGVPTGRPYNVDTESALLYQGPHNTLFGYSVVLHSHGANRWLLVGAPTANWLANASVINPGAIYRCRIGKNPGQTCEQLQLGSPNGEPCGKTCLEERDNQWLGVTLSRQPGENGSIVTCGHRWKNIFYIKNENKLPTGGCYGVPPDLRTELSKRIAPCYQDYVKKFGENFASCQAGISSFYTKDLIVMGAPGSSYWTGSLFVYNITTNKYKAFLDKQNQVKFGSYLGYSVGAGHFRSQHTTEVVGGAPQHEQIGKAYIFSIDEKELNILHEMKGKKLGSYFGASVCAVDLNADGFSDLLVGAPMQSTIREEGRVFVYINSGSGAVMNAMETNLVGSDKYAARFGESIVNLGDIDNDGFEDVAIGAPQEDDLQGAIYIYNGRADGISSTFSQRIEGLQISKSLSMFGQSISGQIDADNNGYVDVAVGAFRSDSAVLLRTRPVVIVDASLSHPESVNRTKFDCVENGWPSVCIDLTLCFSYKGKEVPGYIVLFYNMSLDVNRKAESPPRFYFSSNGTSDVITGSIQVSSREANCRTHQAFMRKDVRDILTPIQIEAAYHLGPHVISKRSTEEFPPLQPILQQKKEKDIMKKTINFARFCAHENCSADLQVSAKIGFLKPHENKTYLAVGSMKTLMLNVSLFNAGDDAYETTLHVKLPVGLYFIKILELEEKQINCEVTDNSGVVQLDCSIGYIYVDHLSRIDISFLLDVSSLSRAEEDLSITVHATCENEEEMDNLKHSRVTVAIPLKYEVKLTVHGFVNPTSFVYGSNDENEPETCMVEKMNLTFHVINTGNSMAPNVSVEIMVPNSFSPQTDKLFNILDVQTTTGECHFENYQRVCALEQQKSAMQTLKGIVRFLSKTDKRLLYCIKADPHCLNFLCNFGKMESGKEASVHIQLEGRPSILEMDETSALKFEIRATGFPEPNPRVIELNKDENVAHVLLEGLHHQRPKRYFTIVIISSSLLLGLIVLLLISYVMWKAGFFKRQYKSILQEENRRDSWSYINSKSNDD
T1 sequence (P26010 whole entry): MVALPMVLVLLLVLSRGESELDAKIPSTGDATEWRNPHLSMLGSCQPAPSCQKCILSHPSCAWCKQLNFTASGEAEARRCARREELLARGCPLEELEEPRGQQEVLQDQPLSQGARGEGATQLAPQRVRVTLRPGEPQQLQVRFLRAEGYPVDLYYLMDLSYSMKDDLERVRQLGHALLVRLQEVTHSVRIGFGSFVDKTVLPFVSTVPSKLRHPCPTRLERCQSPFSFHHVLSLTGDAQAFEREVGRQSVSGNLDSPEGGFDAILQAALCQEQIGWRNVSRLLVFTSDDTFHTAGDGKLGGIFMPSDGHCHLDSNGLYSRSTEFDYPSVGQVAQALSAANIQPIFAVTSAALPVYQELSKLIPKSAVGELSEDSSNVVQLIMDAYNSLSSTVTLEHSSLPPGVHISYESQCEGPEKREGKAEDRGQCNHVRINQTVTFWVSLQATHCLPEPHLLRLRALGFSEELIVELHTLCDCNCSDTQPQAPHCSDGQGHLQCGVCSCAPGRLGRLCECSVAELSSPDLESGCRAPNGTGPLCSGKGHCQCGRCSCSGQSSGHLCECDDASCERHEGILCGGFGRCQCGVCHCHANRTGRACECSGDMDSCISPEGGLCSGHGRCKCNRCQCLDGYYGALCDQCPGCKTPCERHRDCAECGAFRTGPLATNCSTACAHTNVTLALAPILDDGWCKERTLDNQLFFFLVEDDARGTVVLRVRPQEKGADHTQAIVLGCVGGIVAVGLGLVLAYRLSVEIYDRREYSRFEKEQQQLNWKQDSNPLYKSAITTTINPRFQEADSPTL

[3] = molecular target: Integrin alpha-V/beta-3 (Homo sapiens, UniProt P05106+P06756); assay: Binding affinity to integrin alphavbeta3 expressed in jurkat J6 cells
[4] = molecular target: Integrin alpha-5/beta-1 (Homo sapiens, UniProt P05556+P08648); assay: Binding affinity to integrin alpha-5-beta-1 expressed in jurkat J6 cells
Chain of Integrin alpha-5/beta-1 (P05556 21-798 limits assumed): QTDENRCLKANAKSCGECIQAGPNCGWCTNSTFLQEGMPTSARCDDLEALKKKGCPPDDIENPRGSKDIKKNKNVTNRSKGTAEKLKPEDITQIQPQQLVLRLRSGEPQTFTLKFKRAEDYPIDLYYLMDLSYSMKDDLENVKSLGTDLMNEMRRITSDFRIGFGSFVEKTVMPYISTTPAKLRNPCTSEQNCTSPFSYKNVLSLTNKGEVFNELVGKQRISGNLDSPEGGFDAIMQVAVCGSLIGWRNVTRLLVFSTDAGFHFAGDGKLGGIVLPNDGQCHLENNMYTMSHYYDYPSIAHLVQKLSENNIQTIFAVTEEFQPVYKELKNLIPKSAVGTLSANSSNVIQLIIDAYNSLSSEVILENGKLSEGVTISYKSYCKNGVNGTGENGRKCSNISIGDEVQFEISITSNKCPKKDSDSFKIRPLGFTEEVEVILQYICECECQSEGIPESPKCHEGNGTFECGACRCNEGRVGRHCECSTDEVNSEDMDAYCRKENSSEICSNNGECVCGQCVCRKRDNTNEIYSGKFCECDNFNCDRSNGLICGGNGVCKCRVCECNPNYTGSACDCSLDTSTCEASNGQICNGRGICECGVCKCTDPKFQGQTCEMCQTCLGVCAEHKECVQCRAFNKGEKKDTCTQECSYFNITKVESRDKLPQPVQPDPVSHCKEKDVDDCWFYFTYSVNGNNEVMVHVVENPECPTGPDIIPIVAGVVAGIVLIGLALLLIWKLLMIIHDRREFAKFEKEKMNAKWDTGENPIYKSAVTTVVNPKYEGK
Chain of Integrin alpha-5/beta-1 (P08648 42-894 partner limits assumed): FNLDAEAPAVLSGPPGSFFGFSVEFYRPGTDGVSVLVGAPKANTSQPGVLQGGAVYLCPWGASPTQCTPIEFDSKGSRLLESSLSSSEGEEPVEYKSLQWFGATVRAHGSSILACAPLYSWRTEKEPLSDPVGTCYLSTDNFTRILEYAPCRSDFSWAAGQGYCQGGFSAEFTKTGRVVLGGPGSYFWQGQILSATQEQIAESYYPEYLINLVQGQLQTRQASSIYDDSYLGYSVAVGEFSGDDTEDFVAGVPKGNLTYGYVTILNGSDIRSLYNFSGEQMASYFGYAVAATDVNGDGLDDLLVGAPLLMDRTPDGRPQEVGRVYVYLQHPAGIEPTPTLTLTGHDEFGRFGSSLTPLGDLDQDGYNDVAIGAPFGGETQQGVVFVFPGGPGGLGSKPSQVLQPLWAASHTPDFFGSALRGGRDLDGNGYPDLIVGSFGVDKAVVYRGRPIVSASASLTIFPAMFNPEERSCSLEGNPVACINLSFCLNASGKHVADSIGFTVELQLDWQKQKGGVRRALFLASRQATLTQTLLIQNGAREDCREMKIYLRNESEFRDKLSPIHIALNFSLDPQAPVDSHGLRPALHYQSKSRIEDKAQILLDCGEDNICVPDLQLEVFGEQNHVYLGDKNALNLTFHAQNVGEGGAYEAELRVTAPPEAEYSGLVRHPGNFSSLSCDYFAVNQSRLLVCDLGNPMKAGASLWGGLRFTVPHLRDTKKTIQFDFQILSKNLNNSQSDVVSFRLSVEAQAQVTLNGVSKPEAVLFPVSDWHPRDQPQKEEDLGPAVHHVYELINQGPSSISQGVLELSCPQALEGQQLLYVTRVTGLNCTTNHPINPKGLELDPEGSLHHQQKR
Chain of Integrin alpha-5/beta-1 (P08648 895-1049 partner limits assumed): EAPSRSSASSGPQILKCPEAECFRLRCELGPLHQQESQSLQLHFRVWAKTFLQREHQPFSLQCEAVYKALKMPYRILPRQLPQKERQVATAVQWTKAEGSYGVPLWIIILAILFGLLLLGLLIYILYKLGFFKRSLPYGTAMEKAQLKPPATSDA

[5] = molecular target: Integrin alpha-V/beta-6 (Homo sapiens, UniProt P06756+P18564); assay: Binding affinity to integrin alpha-v-beta-6 expressed in jurkat J6 cells
Chain of Integrin alpha-V/beta-6 (P06756 31-889 limits assumed): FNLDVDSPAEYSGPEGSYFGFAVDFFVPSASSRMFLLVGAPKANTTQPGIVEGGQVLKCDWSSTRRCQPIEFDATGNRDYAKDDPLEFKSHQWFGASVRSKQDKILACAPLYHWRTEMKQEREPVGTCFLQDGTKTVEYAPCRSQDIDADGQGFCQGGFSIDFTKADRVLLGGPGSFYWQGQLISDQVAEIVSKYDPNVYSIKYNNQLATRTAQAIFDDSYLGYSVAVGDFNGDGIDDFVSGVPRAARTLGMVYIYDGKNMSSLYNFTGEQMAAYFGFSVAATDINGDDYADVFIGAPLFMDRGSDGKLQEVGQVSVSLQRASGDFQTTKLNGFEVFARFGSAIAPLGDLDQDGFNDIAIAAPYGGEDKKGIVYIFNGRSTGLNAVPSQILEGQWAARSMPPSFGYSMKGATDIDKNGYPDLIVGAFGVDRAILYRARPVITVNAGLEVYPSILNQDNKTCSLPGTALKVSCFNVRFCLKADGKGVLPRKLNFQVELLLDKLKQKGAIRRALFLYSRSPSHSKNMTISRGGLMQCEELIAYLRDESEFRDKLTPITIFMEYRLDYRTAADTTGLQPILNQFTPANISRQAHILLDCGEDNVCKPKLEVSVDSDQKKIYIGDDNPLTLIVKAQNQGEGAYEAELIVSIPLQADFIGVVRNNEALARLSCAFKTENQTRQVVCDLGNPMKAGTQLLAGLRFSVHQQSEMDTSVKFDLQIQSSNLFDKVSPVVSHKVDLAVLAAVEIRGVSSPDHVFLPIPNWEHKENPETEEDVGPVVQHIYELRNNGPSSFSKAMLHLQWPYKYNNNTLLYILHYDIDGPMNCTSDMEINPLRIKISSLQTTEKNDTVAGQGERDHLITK
Chain of Integrin alpha-V/beta-6 (P06756 891-1048 limits assumed): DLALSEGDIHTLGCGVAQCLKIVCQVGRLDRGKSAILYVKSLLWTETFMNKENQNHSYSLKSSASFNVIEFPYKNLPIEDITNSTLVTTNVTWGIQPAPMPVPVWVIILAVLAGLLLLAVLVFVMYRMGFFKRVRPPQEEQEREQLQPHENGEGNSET
Chain of Integrin alpha-V/beta-6 (P18564 22-788 limits assumed): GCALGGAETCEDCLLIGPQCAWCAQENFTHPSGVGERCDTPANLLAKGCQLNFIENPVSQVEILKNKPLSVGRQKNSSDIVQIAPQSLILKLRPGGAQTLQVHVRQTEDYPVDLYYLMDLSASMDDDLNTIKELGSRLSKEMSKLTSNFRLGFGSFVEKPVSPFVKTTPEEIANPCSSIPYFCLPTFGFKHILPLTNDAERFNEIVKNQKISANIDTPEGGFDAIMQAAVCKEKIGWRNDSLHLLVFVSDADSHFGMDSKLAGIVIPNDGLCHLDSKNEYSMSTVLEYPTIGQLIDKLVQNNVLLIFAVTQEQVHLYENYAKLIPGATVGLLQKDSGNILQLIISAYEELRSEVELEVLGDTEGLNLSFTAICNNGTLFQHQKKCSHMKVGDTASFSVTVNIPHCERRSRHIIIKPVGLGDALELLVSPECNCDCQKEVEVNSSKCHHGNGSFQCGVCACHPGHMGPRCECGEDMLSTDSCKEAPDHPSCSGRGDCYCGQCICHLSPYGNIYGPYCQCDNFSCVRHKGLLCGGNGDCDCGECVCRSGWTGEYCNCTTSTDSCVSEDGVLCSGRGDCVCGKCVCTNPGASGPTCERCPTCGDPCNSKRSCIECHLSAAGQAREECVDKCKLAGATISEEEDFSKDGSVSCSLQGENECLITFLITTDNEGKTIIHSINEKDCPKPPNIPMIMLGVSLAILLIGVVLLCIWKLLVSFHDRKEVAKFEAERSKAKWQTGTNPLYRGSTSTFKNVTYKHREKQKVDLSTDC

[6] = molecular target: Integrin alpha-IIb/beta-3 (Homo sapiens, UniProt P05106+P08514); assay: Binding affinity to integrin […] expressed in jurkat J6 cells

Chain of Integrin alpha-4/beta-1 (P05556 whole entry, one chain of several): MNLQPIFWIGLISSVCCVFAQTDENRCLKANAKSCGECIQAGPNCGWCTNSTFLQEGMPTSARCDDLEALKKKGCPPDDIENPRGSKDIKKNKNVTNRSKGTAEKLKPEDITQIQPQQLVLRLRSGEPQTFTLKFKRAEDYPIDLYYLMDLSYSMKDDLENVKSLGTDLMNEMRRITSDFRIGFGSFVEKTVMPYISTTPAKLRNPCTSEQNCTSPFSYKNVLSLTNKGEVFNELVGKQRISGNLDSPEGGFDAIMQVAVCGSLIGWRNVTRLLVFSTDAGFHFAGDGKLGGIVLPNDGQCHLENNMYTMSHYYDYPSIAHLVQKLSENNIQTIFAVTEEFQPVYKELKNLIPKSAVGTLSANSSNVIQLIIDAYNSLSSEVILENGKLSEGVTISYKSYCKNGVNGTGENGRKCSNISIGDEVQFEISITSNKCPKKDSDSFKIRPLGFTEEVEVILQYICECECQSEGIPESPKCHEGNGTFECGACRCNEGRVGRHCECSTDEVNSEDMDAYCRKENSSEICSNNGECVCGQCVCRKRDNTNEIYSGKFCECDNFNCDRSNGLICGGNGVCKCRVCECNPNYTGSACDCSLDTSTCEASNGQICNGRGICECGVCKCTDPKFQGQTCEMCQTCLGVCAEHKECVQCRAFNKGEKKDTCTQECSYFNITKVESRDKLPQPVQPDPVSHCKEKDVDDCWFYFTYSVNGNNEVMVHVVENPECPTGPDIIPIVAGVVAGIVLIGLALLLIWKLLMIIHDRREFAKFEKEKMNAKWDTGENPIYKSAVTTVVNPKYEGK

| Compound | Ki [1] | other results |
| --- | --- | --- |
| Cc1ccccc1NC(=O)Nc1ccc(-c2cccn(-c3ccc(CCC(=O)O)cc3)c2=O)cc1 | > 1000 nM | – |
| Cc1ccccc1NC(=O)Nc1ccc(-c2cccn(Cc3ccc(C(=O)O)cc3)c2=O)cc1 | 316 nM | – |
| Cc1ccccc1NC(=O)Nc1ccc(-c2cnn(Cc3ccc(CCC(=O)O)cc3)c2)cc1 | > 1000 nM | – |
| Cc1ccccc1NC(=O)Nc1ccc(-c2cccn(Cc3ccc(CC(=O)O)cc3)c2=O)cc1 | 251 nM | – |
| Cc1ccccc1NC(=O)Nc1ccc(-c2cccn(Cc3ccccc3CCC(=O)O)c2=O)cc1 | 398 nM | – |
| COc1cc(-c2cccn(Cc3ccc(CCC(=O)O)cc3)c2=O)ccc1NC(=O)Nc1ccccc1C | 0.501 nM | – |
| COc1cc(CC(=O)Nc2ccc([C@H](C)CC(=O)O)cc2)ccc1NC(=O)Nc1ccccc1C | 0.794 nM | – |
| Cc1ccccc1NC(=O)Nc1ccc(-c2cccn(Cc3ccc(CCC(=O)O)cc3)c2=O)cc1 | 2 nM | Ki [2]: > 10000 nM; Ki [3]: > 10000 nM; Ki [4]: > 10000 nM; Ki [5]: > 10000 nM; Ki [6]: > 10000 nM |
| Cc1ccccc1NC(=O)Nc1ccc(-c2cccn(Cc3cccc(CCC(=O)O)c3)c2=O)cc1 | 3.98 nM | – |
| Cc1ccccc1NC(=O)Nc1ccc(-c2ccn(Cc3ccc(CCC(=O)O)cc3)n2)cc1 | 251 nM | – |
| Cc1ccccc1NC(=O)Nc1ccc(CC(=O)Nc2ccc([C@H](C)CC(=O)O)cc2)cc1 | 63.1 nM | – |
| Cc1ccccc1NC(=O)Nc1ccc(-c2ncn(Cc3ccc(CCC(=O)O)cc3)n2)cc1 | 501 nM | – |
| Cc1ccccc1NC(=O)Nc1ccc(-c2cn(Cc3ccc(CCC(=O)O)cc3)cn2)cc1 | > 100000 nM | – |
| COc1cc(-c2ccn(Cc3ccc(CCC(=O)O)cc3)n2)ccc1NC(=O)Nc1ccccc1C | 25.1 nM | – |
| COc1cc(-c2nnc(Cc3ccc(CCC(=O)O)cc3)o2)ccc1NC(=O)Nc1ccccc1C | > 1000 nM | – |
